These results are taken from patent publication US11117907B2, “Curcuminoid-inspired synthetic compounds as anti-tumor agents” (University of North Florida Board of Trustees, priority 2017, dated 2021).

Assay [1] concerns MM cell lines (MM1.S, KMS11, RPMI-8226). Nature of the assay: Cell proliferation and viability in multiple myeloma cell lines (CellTiter Glo 2.0, 72 h). Particulars: read-out: median IC50 concentration in MM cell lines. The assay is classed as cell-based, human. The method, then: Cell proliferation and viability were determined in multiple myeloma (MM) cancer cell lines (RPMI-8226, KMS-11, MM1.S) as well as in peripheral blood mononuclear cells (PBMCs) from healthy donors that were exposed to various concentrations of (A) CUR-analog 1 (3-BF2) and (B) CUR-analog 2 (CUR 2) for 72 hours using the CellTiter Glo 2.0 assay.
(§1) Cell lines and PBCMs (peripheral blood mononuclear cells from healthy donors as non-cancer CONTROL) were seeded in quadruplicate (technical replicates). CellTiter-Glo® 2.0 reagent equal to the volume of cell culture medium present in each well was added and the plate was left to incubate at room temperature for 10 minutes to stabilize the luminescent signal. Luminescent signal/intensity from the 384-well plate was read on a plate reader. Cells/cell lines used: BCWM.1 (Waldenstrom macroglobulinemia cell line, WM); RPMI-8266 (Multiple myeloma cell line, MM); RS4; 11 (Acute lymphoblastic leukemia, ALL). For Apoptosis study cells were treated with the indicated agents and concentrations (FIG. 74) for 24 h and stained with annexin-V and propidium iodide (PI), followed by flow cytometry analysis.
For orientation: In ATP-based viability assays light output follows the ATP content of the culture.

The next assay deals with MM1.S. Nature of the assay: Apoptosis (annexin-V/PI flow cytometry), MM1.S. The assay is classed as cell-based, human. The method, then: (§2) Apoptotic cell death in multiple myeloma (MM) cancer cell lines (RPMI-8226, KMS-11, MM1.S) as well as peripheral blood mononuclear cells (PBMCs) from healthy donors that were exposed to various concentrations of (A) CUR-analog 1 (Indole-4 CUR—BF2) and (B) CUR-analog 2 (Indole-5 CUR) or (C) the FDA-approved Bcl-2 inhibitor (venetoclax, used for comparison) was assessed.
as §1

A further assay deals with KMS-11. Nature of the assay: Apoptosis (annexin-V/PI flow cytometry), KMS-11. Type of assay: cell-based, human. The method, then:
as §2, §1
A general note: In flow cytometry, cells or beads pass a laser one at a time.

A further assay has as its system RPMI-8226. Nature of the assay: Apoptosis (annexin-V/PI flow cytometry), RPMI-8226. The assay is classed as cell-based, human. Particulars: 2.5 uM, 24 h. The method, then: as §2, §1
Another assay relates to PBMCs. Nature of the assay: Apoptosis (annexin-V/PI flow cytometry), healthy donor PBMCs. Type of assay: cell-based, human. The method, then: as §2, §1
A further assay deals with MOLT-4. In words: In vitro cell viability bioassay, CellTiter-Glo, MOLT-4. The assay is classed as cell-based, human. Particulars: Homo sapiens, MOLT-4; CellTiter-Glo Luminescent Cell Viability Assay; read-out: Leukemia IC50 (μM) MOLT-4. The method, then:
(§3) To evaluate the cell growth inhibitory and apoptosis inducing effects of the fluorinated curcuminoids and their BF2 adducts, in-vitro bioassay tests were performed on […] different cancer cell lines namely: MOLT-4 (human leukemia suspension cancer cell line), PC3 and LNCap (human […] prostate cancer cell lines respectively), A549 (lung cancer), and MDA231 (breast cancer), and the results are sketched in Table 3.
(§4) The cell viability/anti-proliferative activity of the curcuminoids against PC3 (human androgen-insensitive prostate cancer cell line), LNCap (human-androgen sensitive prostate cancer cell line), A549 (lung cancer), and MDA231 (breast cancer) were determined by means of 3-(4,5-dimethyl-2-thiazolyl)-2,5-diphenyl-2H-tetrazolium bromide (MTT) assay (the tetrazolium salt was a commercial sample). (R. N. Khaybullin, et al., Molecules, 2014, 19, 18676-18689). The ability of the curcuminoids to affect proliferations of suspension cell lines (MOLT-4) was tested by the CellTiter-Glo® Luminescent Cell Viability Assay (purchased from Promega Madison, Wis., USA) to determine the number of viable cells in culture based on quantitation of the ATP present. The IC50 values were obtained from fitting data with GraphPad software to determine the growth inhibition in the presence of test compounds. (R. N. Khaybullin, et al., Molecules, 2014, 19, 18676-18689).

A further assay deals with PC3. Nature of the assay: In vitro cell viability bioassay, MTT, PC3. The following applies: Homo sapiens, PC-3; MTT assay; read-out: Prostate Cancer IC50 (μM) PC3. Type of assay: cell-based. The method, then: as §3, §4
In general terms: Formazan colour is commonly taken as a measure of viable cells.

Another assay relates to LNCap. In words: In vitro cell viability bioassay, MTT, LNCap. The following applies: Homo sapiens, MTT assay, read-out: Prostate Cancer IC50 (μM) LNCap. The assay is classed as cell-based. The method, then:
as §3, §4

Another assay concerns A549. In words: In vitro cell viability bioassay, MTT, A549. The assay is classed as cell-based. Particulars: Homo sapiens, MTT assay, read-out: Lung Cancer IC50 (μM) A549. The method, then:
as §3, §4

A further assay has as its system MDA231. Nature of the assay: In vitro cell viability bioassay, MTT, MDA231. Type of assay: cell-based, human. The following applies: Homo sapiens, MDA-MB-231; MTT assay; read-out: Breast Cancer IC50 (μM) MDA231. The method, then:
as §3, §4

A further assay concerns MM cell lines. Nature of the assay: Apoptosis (annexin-V/PI flow cytometry), median over MM cell lines. The assay is classed as cell-based, human. The following applies: 1.25, 2.5, 5 uM and 10 uM. The method, then:
Apoptotic cell death in multiple myeloma (MM) cancer cell lines (RPMI-8226, KMS-11, MM1.S) as well as peripheral blood mononuclear cells (PBMCs) from healthy donors that were exposed to various concentrations of (A) CUR-analog 1 (Indole-4 CUR—BF2) and (B) CUR-analog 2 (Indole-5 CUR) or (C) the FDA-approved Bcl-2 inhibitor (venetoclax, used for comparison) was assessed. Bar graphs show % of apoptotic cells (annexin-V+PI positive cells) normalized to basal apoptosis observed in control (DMSO-treated) cells.
In contrast, in KMS11 and MM1.S cells, notable apoptosis (54% and 15%, respectively) was seen only at a 10 uM concentration.
as §1, with “For Apoptosis study cells were treated with the indicated agents and concentrations (FIG. 74) for 24 h and stained with annexin-V and propidium iodide (PI), followed by flow cytometry analysis.” left out

In assay [2] the test system is RPMI8226. In words: Cell viability assay to determine EC50 (CellTiter-Glo 2.0), RPMI8226. The assay is classed as cell-based. Particulars: Homo sapiens, RPMI-8226; Table 7, run number 2; 72 h. The method, then:
(§5) RPMI-8266 (Multiple myeloma cell line, MM) and PBCMs cells were seeded into 384-well culture plates at 2×10^3 cell/well in quadruplicate, and incubated at 5% CO2, 37° C. The culture media was replaced with compounds (ranges from 0-10,000 nM) and incubated for 72 h. Bortezomib was spiked in control. […] CellTiter-Glo® 2.0 reagent was added at equal volume to the cell culture medium present in each well and the plate was left to incubate at room temperature for 10 minutes to stabilize the luminescent signal.
as §1, with “min” for “minutes”, “ALL)* reported to be dependent on Bcl-2 protein.” for “ALL). For Apoptosis study cells were treated with the indicated agents and concentrations (FIG. 74) for 24 h and stained with annexin-V and propidium iodide (PI), followed by flow cytometry analysis.”

Assay [3] deals with PBMC. Nature of the assay: Cell viability assay (CellTiter-Glo 2.0), PBMC from healthy donors. Type of assay: cell-based. The following applies: Homo sapiens, Table 7, run number 2, 72 h. The method, then:
Peripheral blood mononuclear cells (PBMCs) were collected from healthy, i.e. non-cancerous, donors (CONTROL).
as §5
Cell lines and PBCMs (peripheral blood mononuclear cells from healthy donors as non-cancer CONTROL) were seeded in quadruplicate (technical replicates). CellTiter-Glo® 2.0 reagent equal to the volume of cell culture medium present in each well was added and the plate was left to incubate at room temperature for 10 min to stabilize the luminescent signal. Luminescent signal/intensity from the 384-well plate was read on a plate reader. […]
Cell lines and PBCMs (peripheral blood mononuclear cells from healthy donors as non-cancer CONTROL) were seeded in quadruplicate (technical replicates). […] Luminescent signal/intensity from the 384-well plate was read on a plate reader. […]

The subject of assay [4] is RPMI8226. Particulars: control; typically; read-out: EC50 in RPMI8266, typical value; cited from earlier work.
Assay [5] deals with PBMC. The following applies: comparison value; read-out: IC50 of PBMCs; cited from earlier work.
Assay [6] has as its system MM cell lines (MM1.S, KMS11, RPMI-8226). Particulars: cited from earlier work.
The subject of assay [7] is Various cancer cell lines. In words: Cancer cell line growth at 1×10^−5 M curcuminoid. The assay is classed as cell-based. Particulars: all cancer cell lines. The method, then: Various cancer cell lines were seeded into 384-well culture plates at 2×10^3 cell/well and incubated at 5% CO2, 37° C. The culture media was replaced with 1×10^−5 M of curcuminoid; 1,7-bis(2,3,6-trimethoxyphenyl)hepta-1,4,6-triene-3,5-dione, 7-bis(3-benzothiophene)hepta-1,4,6-triene-3,5-dione, or D-793176. The cell line growth was measured.

Like-named read-outs stand apart in the source and are kept apart here. A value given as a limit tells only on which side of the number the result lay.

Regarding `F[B-]1(F)OC(/C=C/c2cccc3[nH]ccc23)=CC(/C=C/c2cccc3[nH]ccc23)=[O+]1` [3-BF2, Indole-4-Curcuminoid-BF2 adduct], the IC50 in assay [1] turned out to be 2.1 µM. Moreover, the “apoptosis, MM1.S” value with MM1.S (2.5 uM, 24 h) was 47%. In addition, the “apoptosis, KMS-11” value in the assay on KMS-11 (2.5 uM, 24 h) is reported as 79%. Further, the “apoptosis, RPMI-8226” value in the assay with RPMI-8226 is reported as 60%. The “apoptosis, healthy donor PBMCs” value with PBMCs ([…] and 2.5 uM, 24 h) is listed as 23-28%.

For the compound `COc1cc(/C=C/C(=O)CC(=O)/C=C/c2ccc(O)c(OC)c2)ccc1O` [compound 1 of FIG. 2, curcumin], the IC50 in the assay on MOLT-4 was 19 µM; with PC3 it was 9 µM; with LNCap it was 9.7 µM; in the assay with A549 it was 18 µM; in the assay with MDA231 it was 11.5 µM.

As for `CC1(C)CCC(CN2CCN(c3ccc(C(=O)NS(=O)(=O)c4ccc(NCC5CCOCC5)c([N+](=O)[O-])c4)c(Oc4cnc5[nH]ccc5c4)c3)CC2)=C(c2ccc(Cl)cc2)C1` [Venetoclax, reference compound], in the assay with PBMCs (1.25, 2.5, 5 uM and 10 uM), the “cell death in healthy donor PBMCs” value is reported as around 10%. Moreover, in the assay on MM cell lines, the “median apoptosis, MM cell lines” value came out at 15%.

As for `CC(C)C[C@H](NC(=O)[C@H](Cc1ccccc1)NC(=O)c1cnccn1)B(O)O` [Bortezomib], the EC50 (in general, the concentration needed to bring the measured effect to its halfway point) in the assay on RPMI8226 [2] was 0.0106 µM; in the assay on PBMC [3] it was 0.0605 µM; in the assay on RPMI8226 [4], 0.01 to 0.016 µM. Also, the IC50 is 0.004 to 0.006 µM in the assay with PBMC [5] and around 0.002 µM in [6] (comparison value, read-out: IC50 in MM cells). Moreover, the “in vitro tumor-specificity profile” value in [6] (MM cells versus PBMCs) is listed as 2-3 fold.

Take `O=C(/C=C/c1ccc(F)cc1)C(F)(F)C(=O)/C=C/c1ccc(F)cc1` [compound 12]: the IC50 in the assay on MOLT-4 was determined as 1.32 µM; in the assay with LNCap, 29.2 µM; in the assay with MDA231, 6.7 µM.

With “1,7-bis(2,3,6-trimethoxyphenyl)hepta-1,4,6-triene-3,5-dione”, the “cell line growth relative to non-treated cells” value in assay [7] is at most 50%.

With “(1E,4E,6E)-5-Hydroxy-1,7-bis(indole-5)hepta-1,4,6-trien-3-one [compound 2 of Example 5]”, the “apoptosis, MM1.S” value in the assay with MM1.S (10 uM) was found to be 15%. Moreover, in the assay with KMS-11 (10 uM), the “apoptosis, KMS11” value stood at 54%. Further, the “apoptosis, RPMI-8226” value with RPMI-8226 is 65%.
